Laboratory results published in ChEMBL document CHEMBL3808311, “Inhibitors of Renal Outer Medullary Potassium Channel” (ACS Med Chem Lett, 2016).

biological target: T1, ATP-sensitive inward rectifier potassium channel 1 (Homo sapiens, UniProt P48048); test: Inhibition of human Kir1.1 expressed in HEK293 cells after 30 mins by thallium flux assay; type: cell-based
T1 sequence (P48048 whole entry): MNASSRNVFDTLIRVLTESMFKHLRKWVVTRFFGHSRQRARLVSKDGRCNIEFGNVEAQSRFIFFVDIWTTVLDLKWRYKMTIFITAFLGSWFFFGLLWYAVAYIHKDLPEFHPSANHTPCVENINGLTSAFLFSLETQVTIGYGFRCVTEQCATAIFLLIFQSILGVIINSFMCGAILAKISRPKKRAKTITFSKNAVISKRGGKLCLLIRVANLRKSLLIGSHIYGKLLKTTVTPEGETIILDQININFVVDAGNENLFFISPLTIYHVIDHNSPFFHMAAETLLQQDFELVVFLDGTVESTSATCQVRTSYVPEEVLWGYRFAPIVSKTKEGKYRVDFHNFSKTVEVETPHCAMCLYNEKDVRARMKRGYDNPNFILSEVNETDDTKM

Row | IC50 [nM] | Compound
1 | 17 | CC1=C(N2CCC3(CCN(C[C@H](O)c4cc5c(cc4C)Cn4nnnc4-5)CC3)C2=O)COC1=O
2 | 11 | CC1=C(N2CCC3(CCN(C[C@H](O)c4ccc5c(c4)-c4nnnn4C5)CC3)C2=O)COC1=O
3 | 32 | C[C@@H]1CC2(CCN(C[C@H](O)c3ccc4c(c3)-c3nnnn3C4)CC2)C(=O)N1C1=CC(=O)OC1
4 | 19 | CC1=C(N2CCC3(CCN(C[C@@H](O)c4ccc5c(c4)-c4nnnn4C5)CC3)C2=O)COC1=O
5 | 7 | C[C@@H]1CC2(CCN(C[C@@H](O)c3ccc4c(c3)-c3nnnn3C4)CC2)C(=O)N1C1=CC(=O)OC1
6 | 9 | CC1=C(N2CCC3(CCN(C[C@@H](O)c4cc5c(cc4Cl)Cn4nnnc4-5)CC3)C2=O)COC1=O
7 | 43 | CC1=C(N2CCC3(CCN(C[C@H](O)c4ccc5c(c4)-c4nnnn4C5)C[C@H]3F)C2=O)COC1=O (stereo partly specified)
8 | 20 | C[C@H]1CC2(CCN(C[C@H](O)c3ccc4c(c3)-c3nnnn3C4)CC2)C(=O)N1C1=CC(=O)OC1
9 | 14 | C[C@H]1CC2(CCN(C[C@@H](O)c3ccc4c(c3)-c3nnnn3C4)CC2)C(=O)N1C1=CC(=O)OC1
10 | 31 | CC1=C(N2CCC3(CCN(C[C@H](O)c4cc5c(cc4Cl)Cn4nnnc4-5)CC3)C2=O)COC1=O
11 | 35 | CC1=C(N2CCC3(CCN(C[C@H](O)c4ccc5c(c4)-c4nnnn4C5)C[C@@H]3F)C2=O)COC1=O (stereo partly specified)
